Experimental data published in patent US11766419B2, “Mebeverine as soluble epoxide hydrolase inhibitor” (Banasthali Vidyapith, priority 2021, dated 2023).
Values joined by “and” are separate entries in the source; they are usually repeats but may differ in a detail not shown here. Equal values may be shown once.

Tests used:
sEH = target: T1, sEH (Homo sapiens, UniProt P34913); assay: In vitro sEH activity assay (PHOME substrate, fluorescence); assay type: biochemical; set-up: sEH inhibitory activity (in words): dose or concentration left out as unconfirmed; details: for IC50: sEH, PHOME substrate
T1 sequence (P34913 1-555): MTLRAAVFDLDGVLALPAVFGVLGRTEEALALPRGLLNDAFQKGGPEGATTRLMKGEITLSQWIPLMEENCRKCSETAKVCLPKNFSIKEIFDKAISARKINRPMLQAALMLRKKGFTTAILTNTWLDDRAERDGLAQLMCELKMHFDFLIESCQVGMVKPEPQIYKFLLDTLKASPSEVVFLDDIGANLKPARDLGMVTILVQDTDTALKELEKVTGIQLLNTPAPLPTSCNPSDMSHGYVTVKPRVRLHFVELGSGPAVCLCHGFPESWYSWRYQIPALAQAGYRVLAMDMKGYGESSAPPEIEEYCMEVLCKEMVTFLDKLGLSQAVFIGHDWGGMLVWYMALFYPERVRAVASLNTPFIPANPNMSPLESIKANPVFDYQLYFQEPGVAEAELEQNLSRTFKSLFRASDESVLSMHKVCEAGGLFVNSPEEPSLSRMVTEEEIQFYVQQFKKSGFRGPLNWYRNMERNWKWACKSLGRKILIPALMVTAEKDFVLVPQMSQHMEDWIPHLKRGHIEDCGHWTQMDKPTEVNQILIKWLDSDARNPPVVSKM
Protocol: Hydrolysis of PHOME by sEH results in the release of cyanohydrins that further decomposes to cyanide ion and 6-methoxy-2-naphthaldehyde (highly fluorescent). The fluorescence was analyzed at an excitation and emission wavelength of 330 nm and 465 nm respectively.

[1] = tested on: Lipopolysaccharide (LPS)-induced hyperlipidaemic rats; assay: LPS-induced hyperlipidemia, serum lipid profile and CRI/AI; assay type: in vivo, rat; details: for AI: Atherogenic index; for CRI: Coronary risk index; for Cholesterol / HDL / LDL / Triglycerides / VLDL: serum
Protocol: (§1) Wistar albino male rats were divided into different experimental groups—Single dose of 10 mg/kg, i.p. of LPS was administered to all the groups (II-IV). After 3 days of induction mebeverine was orally given twice daily for 5 days to groups (III-IV). After last dose, on day 5, blood samples were collected from all experimental rats for analysis of serum lipid profile parameters and CRI/AI. The results are tabulated below in Table 8 and plotted in FIGS. 11 (a-e) and 12. Biochemical estimations in hepatic tissue samples were also analyzed.

[2] = tested on: isolated rat aortic strip; assay: Ex-vivo relaxation of KCl pre-constricted isolated rat aortic strip; details: aortic rings constricted with 80 mmol KCl
Protocol: Aortic rings were suspended in organ baths containing a modified Krebs buffer and bubbled with a mixture of 95% O2/5% CO2. Rings were connected to an isometric force transducer, resting tension was set to 5 g and constricted with 80 mmol KCl. The relaxation of these pre-constricted aortic trips at different concentrations of mebeverine (10^−9-10^−[…]) are tabulated in Table 2 and plotted in FIG. 2.

[3] = tested on: DOCA-induced hypertensive rats; assay: SOD and TBAR level in heart and aortic tissue, DOCA induced hypertension; assay type: in vivo, rat
Protocol: Wistar albino male rats were divided into four experimental groups (I, II, III and IV). Groups (II-IV) were administered with DOCA (20 mg/kg in 5% DMSO) intraperitoneally and drinking water was replaced by 2% NaCl. […] At the end of this experimental period SAP, DAP and MAP were measured. The results are tabulated below in Tables 4A, 4B and 4C, respectively, and are plotted in FIGS. 4a, 4b and 4c. Additionally, the levels of oxidative stress biomarkers, superoxide dismutase (SOD) and thiobarbituric acid (TBARs)s in heart and aortic tissue were also measured (Cayman commercial kit). The results are tabulated in Table 5 and plotted in FIGS. 5a and 5b (TBAR level) and 6a and 6b (SOD level).

[4] = tested on: Lipopolysaccharide (LPS)-induced hyperlipidemic rats; assay: TBAR and SOD level in hepatic tissue, LPS-induced hyperlipidemia; assay type: in vivo, rat
Protocol: as §1, with “The results are tabulated below in Table 8 and plotted in FIGS. 11 (a-e) and 12.” left out

[5] = tested on: DOCA-induced hypertensive rats; assay: DOCA induced hypertension, blood pressure; assay type: in vivo, rat
Protocol: Wistar albino male rats were divided into four experimental groups (I, II, III and IV). Groups (II-IV) were administered with DOCA (20 mg/kg in 5% DMSO) intraperitoneally and drinking water was replaced by 2% NaCl. After induction of high blood pressure, Groups III and IV were treated with 10 mg/kg and 20 mg/kg mebeverine orally, respectively. At the end of this experimental period SAP, DAP and MAP were measured. The results are tabulated below in Tables 4A, 4B and 4C, respectively, and are plotted in FIGS. 4a, 4b and 4c.

[6] = tested on: Triton WR-1339 induced hyperlipidaemic rats; assay: TBAR and SOD level in hepatic tissue, Triton WR-1339 induced hyperlipidemia; assay type: in vivo, rat
Protocol: (§2) Wistar albino male rats were divided into four experimental groups (I, II, III and IV). Groups II-IV were treated with intraperitoneal injection of Triton WR-1339 (200 mg/kg in 2% gum acacia) in 12 h fasted rats to induce hyperlipidemia. Group III and IV were orally administered with Mebeverine twice daily for 3 days at 10 mg/kg and 20 mg/kg. After 48 h, induction of hyperlipidemia blood serum was investigated for total cholesterol and triglycerides. Blood samples were collected from all experimental rats on day 6 (4 days after start of treatment), and, subsequently, serum was separated for analysis of serum lipid profile parameters and CRI/AI. Liver was excised and stored at −80° C. until biochemical parameters in hepatic tissue samples were analysed. The results are tabulated below in Table 6 and plotted in FIGS. 7 (a-e) and 8.
In addition, the effect on oxidative stress markers on hepatic tissue were also observed. The results are shown in Table 7 and plotted in FIGS. 9 and 10.

[7] = tested on: angiotensin-II induced hypertensive rats; assay: Angiotensin II induced hypertension, blood pressure; assay type: in vivo, rat
Protocol: Wistar albino male rats were divided into four experimental groups (I, II, III and IV). Groups II-IV were infused with Angiotensin II at a continuous rate via subcutaneously implanted osmotic mini pump for 7 days. After induction of high blood pressure, (>140/90 mm of Hg), Groups III and IV were administered with mebeverine twice daily for five consecutive days at 10 mg/kg and 20 mg/kg doses respectively. At the end of this experimental period SAP, DAP and MAP were measured. The results are tabulated below in Tables 3A, 3B, and 3C, respectively, and are plotted in FIGS. 3a, 3b and 3c.

[8] = tested on: Triton WR-1339 induced hyperlipidaemic rats; assay: Triton WR-1339 induced hyperlipidemia, serum lipid profile and CRI/AI; assay type: in vivo, rat; details: for CRI: Coronary risk index; for Cholesterol / HDL / LDL / Triglycerides / VLDL: serum
Protocol: as §2

[9] = 10 mg/kg orally twice daily for 5 days
[10] = 20 mg/kg orally twice daily for 5 days
[11] = 10 mg/kg orally twice daily for 3 days
[12] = 20 mg/kg orally twice daily for 3 days

## C[C@H](CS)C(=O)N1CCC[C@H]1C(=O)O [Captopril, captopril]
sEH; remaining enzyme activity
  sEH activity: 100%
sEH
  IC50: 693 nM

## CCN(CCCCOC(=O)c1ccc(OC)c(OC)c1)C(C)Cc1ccc(OC)cc1 (centres unmarked) [Mebeverine]
[1]; [9]
  AI: 2.14 ± 0.02
  CRI: 3.14 ± 0.14
  Cholesterol: 132.5 ± 4.24 mg/dL
  HDL: 42.0 ± 1.41 mg/dL
  LDL: 58.3 ± 3.25 mg/dL
  Triglycerides: 158.5 ± 3.58 mg/dL
  VLDL: 31.6 ± 0.34 mg/dL
[1]; [10]
  AI: 1.01 ± 0.17
  CRI: 2.01 ± 0.17
  Cholesterol: 103.50 ± 1.41 mg/dL
  HDL: 51.00 ± 3.53 mg/dL
  LDL: 30.0 ± 3.25 mg/dL
  Triglycerides: 110.00 ± 2.82 mg/dL
  VLDL: 22.0 ± 0.56 mg/dL
[2]; Mebeverine conc 10^−4 nM (maximal relaxant effect)
  % relaxation: 79.3±0.01% and 79.3%
[2]; Mebeverine conc 10^−5 nM
  % relaxation: 71.1%
[2]; Mebeverine conc 10^−6 nM
  % relaxation: 64.9%
[2]; Mebeverine conc 10^−7 nM
  % relaxation: 52.2%
[2]; Mebeverine conc 10^−8 nM
  % relaxation: 23.9%
[2]; Mebeverine conc 10^−9 nM
  % relaxation: 14.5%
sEH; dose-dependent
  sEH inhibitory activity (in words): potent inhibitor of sEH enzyme
sEH
  IC50: 3.9 nM
[3]; Aortic tissue, 10 mg/kg
  SOD Level: 70.20 ± 0.28 U/g tissue
  TBAR level: 0.87 ± 0.02 nmol/mg protein
[3]; Aortic tissue, 20 mg/kg
  SOD Level: 90.21 ± 0.21 U/g tissue
  TBAR level: 0.71 ± 0.03 nmol/mg protein
[3]; Heart tissue, 10 mg/kg
  SOD Level: 73.04 ± 0.29 U/g tissue
  TBAR level: 0.88 ± 0.03 nmol/mg protein
[3]; Heart tissue, 20 mg/kg
  SOD Level: 86.24 ± 0.37 U/g tissue
  TBAR level: 0.68 ± 0.01 nmol/mg protein
[3]; aortic and heart tissue
  SOD activity (in words): significant dose dependent increase
  TBARs concentration (in words): significant dose dependent decrease
[4]; 10 mg/kg
  SOD: 67.13 ± 0.21 U/g protein
  TBAR: 1.10 ± 0.01 nmol/mg protein
[4]; 20 mg/kg
  SOD: 74.50 ± 0.15 U/g protein
  TBAR: 0.701 ± 0.02 nmol/mg protein
[5]; 10 mg/kg orally, D 0
  DAP: 168 ± 10.60 mm Hg
  MAP: 179 ± 7.63 mm Hg
  SAP: 213 ± 2.82 mm Hg
[5]; 10 mg/kg orally, D 3
  DAP: 156 ± 9.89 mm Hg
  MAP: 170 ± 0.52 mm Hg
  SAP: 187 ± 8.48 mm Hg
[5]; 10 mg/kg orally, D 4
  DAP: 101 ± 1.52 mm Hg
  MAP: 114 ± 6.08 mm Hg
  SAP: 140 ± 8.00 mm Hg
[5]; 10 mg/kg orally, D 5
  DAP: 84 ± 1.06 mm Hg
  MAP: 99 ± 0.77 mm Hg
  SAP: 108 ± 1.41 mm Hg
[5]; 20 mg/kg orally, D 0
  DAP: 185 ± 3.50 mm Hg
  MAP: 199 ± 6.54 mm Hg
  SAP: 226 ± 4.94 mm Hg
[5]; 20 mg/kg orally, D 3
  DAP: 128 ± 7.07 mm Hg
  MAP: 140 ± 1.71 mm Hg
  SAP: 166 ± 6.36 mm Hg
[5]; 20 mg/kg orally, D 4
  DAP: 83 ± 5.13 mm Hg
  MAP: 96 ± 7.57 mm Hg
  SAP: 114 ± 10.01 mm Hg
[5]; 20 mg/kg orally, D 5
  DAP: 72 ± 0.70 mm Hg
  MAP: 86 ± 0.63 mm Hg
  SAP: 98 ± 1.09 mm Hg
[6]; 10 mg/kg
  SOD: 65.13 ± 0.22 U/g protein
  TBAR: 0.78 ± 0.01 nmol/mg protein
[6]; 20 mg/kg
  SOD: 87.27 ± 0.30 U/g protein
  TBAR: 0.70 ± 0.01 nmol/mg protein
[7]; 10 mg/kg twice daily, D 0
  DAP: 189 ± 13.43 mm Hg
  MAP: 200 ± 8.40 mm Hg
  SAP: 213 ± 6.360 mm Hg
[7]; 10 mg/kg twice daily, D 3
  DAP: 168 ± 6.86 mm Hg
  MAP: 182 ± 12.02 mm Hg
  SAP: 208 ± 6.970 mm Hg
[7]; 10 mg/kg twice daily, D 4
  DAP: 95 ± 11.70 mm Hg
  MAP: 110 ± 16.78 mm Hg
  SAP: 146 ± 5.370 mm Hg
[7]; 10 mg/kg twice daily, D 5
  DAP: 92 ± 4.24 mm Hg
  MAP: 108 ± 1.07 mm Hg
  SAP: 140 ± 2.120 mm Hg
[7]; 20 mg/kg twice daily, D 0
  DAP: 152 ± 1.40 mm Hg
  MAP: 170 ± 4.30 mm Hg
  SAP: 193 ± 3.530 mm Hg
[7]; 20 mg/kg twice daily, D 3
  DAP: 109 ± 28.80 mm Hg
  MAP: 128 ± 7.07 mm Hg
  SAP: 147 ± 5.600 mm Hg
[7]; 20 mg/kg twice daily, D 4
  DAP: 86 ± 1.70 mm Hg
  MAP: 98 ± 1.51 mm Hg
  SAP: 123 ± 7.28 mm Hg
[7]; 20 mg/kg twice daily, D 5
  DAP: 82 ± 3.53 mm Hg
  MAP: 92 ± 2.82 mm Hg
  SAP: 119 ± 7.07 mm Hg
[7]; both 10 mg/kg and 20 mg/kg, P<0.001
  Effect on high blood pressure (in words): reduces the high blood pressure
[8]; 10 mg/kg
  HDL (in words): increases HDL
  triglycerides, cholesterol, LDL and VLDL and CRI/AI (in words): markedly decreases
[8]; [11]
  AT: 2.32 ± 0.02
  CRI: 3.32 ± 0.02
  Cholesterol: 108.00 ± 8.48 mg/dL
  HDL: 32.50 ± 2.12 mg/dL
  LDL: 55.90 ± 9.75 mg/dL
  Triglycerides: 98.00 ± 9.8 mg/dL
  VLDL: 19.60 ± 3.25 mg/dL
[8]; [12]
  AT: 0.79 ± 0.19
  CRI: 1.79 ± 0.02
  Cholesterol: 95.00 ± 4.94 mg/dL
  HDL: 53.00 ± 1.59 mg/dL
  LDL: 26.90 ± 1.83 mg/dL
  Triglycerides: 77.00 ± 9.19 mg/dL
  VLDL: 15.40 ± 1.83 mg/dL
